Like-named read-outs stand apart in the source and are kept apart here.
Tests used:
TcG6PDH wildtype = TcG6PDH wildtype (Trypanosoma cruzi, UniProt Q1WBU6); experiment: Inhibitor assay with wildtype TcG6PDH (NADPH formation at 340 nm); format: biochemical; details: for activity at 30 µM: read-out: G6PDH Activity [%] ± SD at 30 µM Compound; for inhibition at 30 µM: read-out: inhibition at 30 μM compound; for increase of potency towards the parasite enzyme compared to the parental scaffold (EA): vs EA
TcG6PDH wildtype, sequence (Q1WBU6 entry or part of it): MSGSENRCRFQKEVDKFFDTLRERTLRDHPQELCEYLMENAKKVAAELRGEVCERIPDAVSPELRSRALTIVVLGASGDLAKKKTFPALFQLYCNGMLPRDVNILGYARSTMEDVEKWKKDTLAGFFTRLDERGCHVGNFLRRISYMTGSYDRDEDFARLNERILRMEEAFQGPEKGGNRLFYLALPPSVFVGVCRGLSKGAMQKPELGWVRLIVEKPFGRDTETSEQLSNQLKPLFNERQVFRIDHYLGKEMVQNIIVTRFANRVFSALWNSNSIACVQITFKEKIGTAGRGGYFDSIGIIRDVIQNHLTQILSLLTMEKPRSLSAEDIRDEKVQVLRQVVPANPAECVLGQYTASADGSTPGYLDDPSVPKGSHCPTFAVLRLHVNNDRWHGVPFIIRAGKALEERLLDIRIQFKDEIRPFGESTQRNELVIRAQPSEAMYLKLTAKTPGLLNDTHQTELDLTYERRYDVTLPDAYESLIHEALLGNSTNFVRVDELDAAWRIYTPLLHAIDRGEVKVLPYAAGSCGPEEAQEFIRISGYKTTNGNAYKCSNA

human G6PDH = details: cited from earlier work; for IC50: read-out: IC50 (anti-human G6PDH activity); for increase of inhibition of human G6PDH compared to the parental scaffold (EA): vs EA
WT TcG6PDH = experiment: Kinetic assay of WT TcG6PDH with substrates
Method: G6PDH activity was determined at ~25 °C by monitoring NADPH (ε340 = 6220 M^−1·cm^−1) formation at 340 nm. All assays were performed in buffer B (50 mM Tris pH 7.5, 5 mM MgCl2) in a final reaction volume of 150 µL and started by addition of glucose-6-phosphate (G6P). For WT TcG6PDH, the Michaelis’ constants (KM) and the maximum initial velocity (Vmax) were determined varying reciprocally the substrate (10, 50, 200, 1000 and 5000 µM G6P) and coenzyme (5, 10, 50, 250 and 625 µM NADP^+) concentrations. For the mutants, the kinetic characterization was performed at a fixed saturating concentration of the corresponding co-substrate (i.e., 6 mM G6P and 700 µM NADP^+) and varying concentrations of the substrate (25, 50, 70, 100, 250, 350, 500 and 700 µM NADP^+, and 0.005, 0.025, 0.05, 0.25, 0.65, 1, 2.5 and 5 mM G6P). […] The first 30 s of the reaction were used to calculate initial velocities that were normalized by the corresponding enzyme concentration in the assay. All measurements were performed in triplicate using a Cary 50 Bio spectrophotometer (Agilent Technologies, Santa Clara, CA, USA). The initial rates were determined with the Origin Pro 8.0 software (OriginLab Corporation, Northampton, MA, USA), and the apparent kinetic constants were calculated by nonlinear regression using the GraphPad Prism 5.0 software (GraphPad Inc., San Diego, CA, USA). The data were fitted to the Cleland or Michaelis-Menten equation to obtain the corresponding kinetic parameters.

T. cruzi G6PDH (TcG6PDH) = details: cited from earlier work
G6PDH from T. brucei = details: cited from earlier work
[1] = test system: African trypanosomes expressing an ectopic copy of L. mexicana G6PDH; details: endogenous G6PDH deficient; cited from earlier work

SMILES: C[C@]12CC[C@H](NS(N)(=O)=O)CC1CCC1C2CC[C@@]2(C)C1CC[C@@H]2C(=O)CO (stereo partly shown) [Compound 3]
- activity at 30 µM (TcG6PDH wildtype): 30 ± 2%
- inhibition at 30 µM (TcG6PDH wildtype): 60 to 70%
- IC50 (human G6PDH): ~2000 nM

SMILES: C[C@]12CC[C@H](O)CC1CCC1C2CC[C@@]2(C)C1CC[C@@H]2C(=O)CO (stereo partly shown) [Compound 4]
- activity at 30 µM (TcG6PDH wildtype): 43 ± 2%
- inhibition at 30 µM (TcG6PDH wildtype): 60 to 70%
- IC50 (human G6PDH): ~2000 nM

SMILES: O=C[C@H](O)[C@@H](O)[C@H](O)[C@H](O)COP(=O)(O)O [Compound G6P, glucose-6-phosphate]
- Km (WT TcG6PDH; read-out: KM G6P, apparent, triplicate): 77 ± 20 µM
- kcat (WT TcG6PDH; varying G6P): 62 ± 3 s⁻¹

SMILES: C[C@]12CC[C@H](O)CC1=CC[C@@H]1[C@@H]2CC[C@]2(C)C(=O)CC[C@@H]12 [DHEA, dehydroepiandrosterone]
- Ki (T. cruzi G6PDH (TcG6PDH)): 2600 to 25000 nM
- Ki (G6PDH from T. brucei): 1700 nM
- Ki (human G6PDH): 6000 to 9000 nM

SMILES: CCNC(=O)N[C@H]1CC[C@@]2(C)C(CCC3C2CC[C@]2(C)C(=O)CCC32)C1 (stereo partly shown) [Compound 1]
- IC50 (TcG6PDH wildtype): 1500 nM
- activity at 30 µM (TcG6PDH wildtype): 7 ± 1%
- increase of potency towards the parasite enzyme compared to the parental scaffold (EA) (TcG6PDH wildtype): ≤ 2 fold
- increase of inhibition of human G6PDH compared to the parental scaffold (EA) (human G6PDH): ~ 10 fold

SMILES: C[C@]12CC[C@H](NS(N)(=O)=O)CC1CCC1C2CC[C@]2(C)C(=O)CCC12 (stereo partly shown) [Compound 2]
- IC50 (TcG6PDH wildtype): 2200 nM
- activity at 30 µM (TcG6PDH wildtype): 9 ± 1%
- increase of potency towards the parasite enzyme compared to the parental scaffold (EA) (TcG6PDH wildtype): ≤ 2 fold
- increase of inhibition of human G6PDH compared to the parental scaffold (EA) (human G6PDH): ~ 10 fold

SMILES: C[C@]12CC[C@H](O)C[C@@H]1CC[C@@H]1[C@@H]2CC[C@]2(C)C(=O)CC[C@@H]12 [EA, epiandrosterone, reference compound]
- sensitivity of trypanosomes expressing L. mexicana G6PDH [1]: resistant
- Ki (T. cruzi G6PDH (TcG6PDH)): 1000 to 5600 nM
- Ki (G6PDH from T. brucei): 500 nM
- IC50 (TcG6PDH wildtype): 3000 ± 400 nM
- activity at 30 µM (TcG6PDH wildtype): 12 ± 2%
- Ki (human G6PDH): 3000 nM

SMILES: C[C@]12CC[C@H](O)CC1CCC1C2CC[C@]2(C)C(=O)C(Br)CC12 (stereo partly shown) [Compound 16Br-EA, 16-bromo epiandrosterone, reference compound]
- activity against human G6PDH relative to TcG6PDH (human G6PDH): almost two orders of magnitude less active

SMILES: NC(=O)c1ccc[n+]([C@@H]2O[C@H](COP(=O)([O-])OP(=O)(O)OC[C@H]3O[C@@H](n4cnc5c(N)ncnc54)[C@H](OP(=O)(O)O)[C@@H]3O)[C@@H](O)[C@H]2O)c1 [NADP^+]
- Km (WT TcG6PDH; read-out: KM NADP^+, apparent, triplicate): 16 ± 3 µM
- kcat (WT TcG6PDH; varying NADP+): 52 ± 2 s⁻¹

— paper PMC6273692, “Binding Mode and Selectivity of Steroids towards Glucose-6-phosphate Dehydrogenase from the Pathogen Trypanosoma cruzi” (Molecules, 2016)
